Converted amounts (≈) assume the structure as drawn. “And” between values parts separate entries of the source, which are not always exact repeats. Identical values can stand only once. Like-named read-outs stand apart in the source and are kept apart here.
Tests used:
[1] = test system: wild type E. Coli strain BW25113; experiment: Study 3 - Antibacterial activity (EC50), dilution susceptibility test M07-A9; assay type: cell-based, Escherichia coli; settings: for EC50: Escherichia coli
Description: The antibacterial activity of the separated diastereomers (V-i) and (V-ii) was determined against wild type E. Coli strain BW25113.
The method described in “Methods for Dilution Antimicrobial Susceptibility Tests for Bacteria that Grow Aerobically; Approved Standard—Ninth Edition” (M07-A9; Vol. 32, No. 2) was used.

Escherichia Coli LeuRS = Escherichia Coli LeuRS (Escherichia coli (strain K12), UniProt P07813); experiment: Study 1 - Isothermal titration calorimetry (ITC), separated diastereomers; assay type: binding
Description: The dissociation constants (KD) of the separated diastereomers (V-i) and (V-ii) for binding to Escherichia Coli LeuRS were determined by isothermal titration calorimetry (ITC).
Escherichia coli BL21(DE3) cells transformed with plasmid pQE-60 containing the open-reading frame sequence of one targeted aaRS (i.e., LeuRS) were induced with 1 mM IPTG (isopropyl β-D-1-thiogalactopyranoside) for 3 hours at 37° C. Bacterial cells were harvested and lysed with 20 mM HEPES (4-(2-hydroxyethyl)-1-piperazinylethane-sulfonic acid) (pH 7.5), 300 mM NaCl, 15 mM imidazole and 1 mM DTT (1,4-dithio-D-threitol). The pathogenic aaRS was first purified by nickel affinity standard chromatography. The eluted protein was concentrated and then further purified by gel filtration using 50 mM HEPES (pH 7.5), 150 mM NaCl buffer.
ITC studies were carried out using a Microcal ITC200 instrument (GE Healthcare). […] The titrations were performed at 25° C. with 10-30 μM E. Coli LeuRS in 50 mM HEPES, 150 mM NaCl, pH 7.5 buffer containing 1% DMSO (v/v). The protein solution in the 200 μL sample cell was titrated with the inhibitor solution (diluted to 100-300 μM in the same buffer as the protein) using 1-2 μL injections every 140 seconds. All titrations were repeated at least three times. To correct for heats of dilution and mixing, the final baseline consisting of small peaks of identical size at the end of each experiment was subtracted. The experimental data were fitted to a theoretical titration curve (one site model) using MicroCal Origin 7 software.

[2] = ITC, 25° C., pH 7.5, single replicates 1-3
[3] = ITC, 25° C., pH 7.5, single replicates 1-3, read-out: K (binding constant) (converted)
[4] = read-out: KD (dissociation constant)

Chain of Escherichia Coli LeuRS (P07813 whole entry): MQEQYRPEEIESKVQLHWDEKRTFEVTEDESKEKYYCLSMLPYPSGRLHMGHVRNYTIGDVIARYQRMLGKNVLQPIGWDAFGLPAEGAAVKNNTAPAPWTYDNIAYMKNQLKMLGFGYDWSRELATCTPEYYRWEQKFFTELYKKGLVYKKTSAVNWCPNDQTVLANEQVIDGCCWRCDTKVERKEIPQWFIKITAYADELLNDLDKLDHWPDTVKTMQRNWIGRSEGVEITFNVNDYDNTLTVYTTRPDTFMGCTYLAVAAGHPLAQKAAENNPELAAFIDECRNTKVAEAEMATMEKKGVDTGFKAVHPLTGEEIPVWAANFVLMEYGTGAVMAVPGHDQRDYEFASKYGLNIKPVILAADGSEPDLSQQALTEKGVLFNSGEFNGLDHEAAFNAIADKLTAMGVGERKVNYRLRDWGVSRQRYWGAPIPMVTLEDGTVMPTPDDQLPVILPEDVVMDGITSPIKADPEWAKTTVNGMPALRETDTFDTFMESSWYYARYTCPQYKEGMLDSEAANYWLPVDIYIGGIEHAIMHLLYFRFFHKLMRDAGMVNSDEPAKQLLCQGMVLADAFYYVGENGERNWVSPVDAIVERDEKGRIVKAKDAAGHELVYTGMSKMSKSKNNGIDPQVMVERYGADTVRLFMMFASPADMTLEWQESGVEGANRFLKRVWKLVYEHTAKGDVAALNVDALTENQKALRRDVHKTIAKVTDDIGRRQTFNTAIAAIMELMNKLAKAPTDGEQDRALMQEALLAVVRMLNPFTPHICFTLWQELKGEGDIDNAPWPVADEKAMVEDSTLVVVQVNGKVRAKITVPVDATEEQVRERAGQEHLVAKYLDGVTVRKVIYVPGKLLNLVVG

CC(C)C[C@H](N)C(=O)N[S@+]([O-])c1ccccc1 (single isomer, unassigned) [V-i]
antibacterial activity (in words) [1]: potent antibacterial agent
EC50 [1]: 4 µg/mL (≈ 15.7 µM)
binding to E. coli LeuRS (in words) (Escherichia Coli LeuRS; ITC): binds with high affinity
K (binding constant) (Escherichia Coli LeuRS; [2]): 2.4e+08 M⁻¹
ΔS (Escherichia Coli LeuRS; [2]): −7.96 cal/mol/° C. and −12.5 cal/mol/° C. and −7.03 cal/mol/° C.
Kd (Escherichia Coli LeuRS; [3]): 6.49 nM and 3.14 nM
Kd (Escherichia Coli LeuRS; [4]): 4.6 nM

CC(C)C[C@H](N)C(=O)N[S@@+]([O-])c1ccccc1 (single isomer, unassigned) [V-ii]
EC50 [1]: > 128 µg/mL
K (binding constant) (Escherichia Coli LeuRS; [2]): 83500 M⁻¹ and 77000 M⁻¹
ΔH (Escherichia Coli LeuRS; [2]): -5690 cal/mol and -5899 cal/mol and -6200 cal/mol
ΔS (Escherichia Coli LeuRS; [2]): +3.44 cal/mol/° C. and +2.28 cal/mol/° C. and +1.56 cal/mol/° C.
Kd (Escherichia Coli LeuRS; [3]): 15000 nM
Kd (Escherichia Coli LeuRS; [4]): 13000 nM

Reference: patent US11802110B2, “2-amino-N-(arylsulfinyl)-acetamide compounds as inhibitors of bacterial aminoacyl-tRNA synthetase” (priority 2016, dated 2023)
